Assay results published in patent US20230390226A1 (PaxMedica, Inc., priority 2021, published 2023).

Columns and labels:
Type in all cases: in vivo, mouse
[1] = system: B6.129P2-Fmr1tm1Cgr/J transgenic (TG) mice; assay: Locomotor activity test (SmartCage)
Protocol: (§1) • 1. N=6 mice per group. • 2. All behavioral testing included a group of untreated wild type controls. • 3. Dosing for the various groups were as follows: • a. […] Group 2: IP saline, […], administered weekly to animals beginning at 9 weeks of age and continuing for four weeks (i.e. given at Age Weeks 9, 10, 11 and 12). • c. […] Behavioral tests for all groups (Groups 1-5) began the following day after the last day of IN dosing (Weeks 13-14 of age). • 5. Blood samples (for PK testing) were collected from all mice at the end of Week 12 of age, just prior to starting the behavioral tests in Week 13 of age. • 6. Brain tissue (for biochemistry testing) was harvested from all mice upon sacrifice at the conclusion of all behavioral testing at the end of Week 13-14 of age.
Male B6.129P2-Fmr1tm1Cgr/J TG (TG) mice were purchased from Jackson Laboratories, Bar Harbor, Maine. These mice were of approximately 8(+1) weeks of age. […] Body weights of all mice were recorded for health monitoring purposes.
Dosing was carried out over the course of 28 days as instructed by the study Sponsor. […] Day 1 to Day 2: Locomotor Activity recording is assessed using the SmartCage™ • 2. […]
Each mouse was placed in a clean plastic, transparent home cage within the SmartCage™. […] Active Time, Travel Distance, and Rearing Activity were assessed for each mouse. Data analyzed based on treatment group.

[2] = system: B6.129P2-Fmr1tm1Cgr/J transgenic (TG) mice; assay: Step through passive avoidance test, learning and memory
Protocol: as §1, with “type (WT)” for “type”
Male B6.129P2-Fmr1tm1Cgr/J TG (TG) mice were purchased from Jackson Laboratories, Bar Harbor, Maine. These mice were of approximately 8 (±1) weeks of age. Mice were maintained in group cages (6 mice per cage based on treatment group) in a controlled environment (temperature: 21.5±4.5° C./relative humidity: 35-55%) under a standard 12 hour light/12 hour dark lighting cycle (lights on at 06:00). Mice accommodated to the research facility for the remainder of the week. Dosing began on the following Monday. Body weights of all mice were recorded for health monitoring purposes.
Dosing was carried out over the course of 28 days as instructed by the study Sponsor. The fifth and final behavioral test, the Step Through (ST) Passive Avoidance Test, was performed over two days (days 38 and 39) with the first day as a Training Day and the second day as a Test Day. Passive avoidance is fear-motivated tests classically used to assess short-term or long-term memory on rodents. […] The mouse is then allowed to freely explore the SmartCage™ and enter the dark box “Dark Zone” at its own discretion; dark box entry latency is automatically recorded. • 4. […] The mouse may freely explore the SmartCage™ for 5 minutes, and avoidance of the Dark Box due to contextual-fear association is assessed. • 8. […]

[3] = system: B6.129P2-Fmr1tm1Cgr/J transgenic (TG) mice; assay: Light/dark preference test (LDT), anxiety-like behavior
Protocol: • 1. N=6 mice per group. • 2. All behavioral testing included a group of untreated wild type controls. • 3. Dosing for the various groups were as follows: • a. […] Group 2: IP saline, […], administered weekly to animals beginning at 9 weeks of age and continuing for four weeks (i.e. given at Age Weeks 9, 10, 11 and 12). • c. […] Behavioral tests for all groups (Groups 1-5) began the following day after the last day of IN dosing (Weeks 13-14 of age). • 5. Blood samples (PK testing) were collected from all mice at the end of 12 Weeks of age, just prior to starting the behavioral tests in Week 13. • 6. Brain tissue (for biochemistry testing) was harvested from all mice upon sacrifice at the conclusion of all behavioral testing at the end of 13-14 Weeks of age.
Male B6.129P2-Fmr1tm1Cgr/J TG mice were purchased from Jackson Laboratories, Bar Harbor, Maine. These mice were of approximately 8(+1) weeks of age. Mice were maintained in group cages (6 mice per cage based on treatment group) in a controlled environment (temperature: 21.5±4.5° C./relative humidity: 35-55%) under a standard 12-hour light/12-hour dark lighting cycle (lights on at 06:00). Mice accommodated to the research facility for the remainder of the week. Dosing began on the following Monday. Body weights of all mice were recorded for health monitoring purposes.
Dosing was carried out over the course of 28 days as instructed by the study sponsor. • 1. Prior to the beginning of the light/dark test, a dark box (red transparent enclosure with an opening for the mouse to enter) is placed in the SmartCage™ • 2. An individual mouse is placed in the open/non-dark box side (“Light Zone”), with its head facing away from the dark box. • 3. The mouse is then allowed to freely explore the SmartCage™ and enter the dark box “Dark Zone” at its own discretion over a 10-minute span. • 4. Anxiety-like behavior is assessed based on the SmartCage™ monitoring of time spent in the Light Zone, the number of Light Zone entries, and % Time Spent in the Light Zone. • 5. […]

How did the active time ([1]; IN daily, weekly and every 2 days, ~24 h recording) turn out when `Cc1ccc(C(=O)Nc2ccc(S(=O)(=O)O)c3cc(S(=O)(=O)O)cc(S(=O)(=O)O)c23)cc1NC(=O)c1cccc(NC(=O)Nc2cccc(C(=O)Nc3cc(C(=O)Nc4ccc(S(=O)(=O)O)c5cc(S(=O)(=O)O)cc(S(=O)(=O)O)c45)ccc3C)c2)c1` [suramin, 1,3,5-Naphthalenetrisulfonic acid, 8,8′-[carbonylbis[imino-3,1-phenylenecarbonylimino(4-methyl-3,1-phenylene)carbonylimino]]bis-] was run?
Its active time is “greater activity compared to the WT control group”.

And the rearing count ([1]; IN every 2 days)?
Its rearing count is “comparable to the WT control group”.

What about the “dark zone entry latency” value ([2]; Test Day, IP 20 mg/kg weekly) of the same compound?
The value was “shortest latency”.

And the “percentage of time spent in the light zone” value ([2]; test day, IN groups)?
The value was “greater than 70%”.

And the “total light zone time” value ([2]; test day, IP 20 mg/kg weekly)?
Its value is “lower total time”.

And the “percentage of time spent in the light zone” value ([3]; IN weekly for 4 weeks)?
Its value is “higher percentage of time spent in the Light Zone”.

And the “total time spent in the light zone” value ([3]; IN weekly for 4 weeks, 10-minute test)?
Its value is about 6.5 min.

What about the “dark zone entry latency” value ([3]; all IN groups (daily, every other day, weekly)) of the same compound?
The value was 60 to 65 s.
